Test results from paper PMC9740789, “Investigation of In Vitro and In Vivo Metabolism of α-Amanitin in Rats Using Liquid Chromatography-Quadrupole Time-of-Flight Mass Spectrometric Method” (Molecules, 2022).

Test: in vivo
Assay type: in vivo, rat
Description: The above developed LC-qTOF-MS method was applied to obtain the PK parameters after IV and PO administration in rat. Most of the PK samples were within the qualified calibration curve, except the 2 min-time point samples in the IV group which were slightly above the upper limit of quantification (ULOQ). Since the calibration curve was linear in the range of quantification, the concentrations of these early time point IV samples have been calculated by extrapolation of the calibration curve which is also applicable for discovery study in pharmaceutical industries. The PK parameters were calculated with the non-compartmental analysis (NCA) using WinNonlin® version 8.1.0 (Certara, Princeton, NJ, USA) and the results are summarized in Table 6.
Animal Male SD rats (320 ± 10 g) were purchased from the Samtako Biokorea co. (Gyeonggi, Republic of Korea) and housed in a group of four units per cage and given standard rodent chow. The rats were fasted overnight with free access to water for 12 h before administration. The formulation was prepared by dissolving α-amanitin in normal saline (NS) and DMSO (4:1, v/v).
The rats with femoral artery and femoral vein cannulation were prepared for the IV administration, and the rats with single femoral artery cannulation were prepared for the PO administration. The cannulated SD rats were given 1 mg/kg of α-amanitin by either IV bolus or PO (n = 4, both). After administration of α-amanitin, blood sample was collected through a femoral artery cannula and transferred into a heparin-containing tube at each sampling time point (IV: 2, 5, 15, 30, 60, 120, 240, 480, and 1440 min after drug administration and PO: 5, 15, 30, 60, 120, 240, 480, and 1440 min after drug administration). Then plasma sample was obtained by centrifuging the blood sample at 13,000 rpm for 5 min. The obtained plasma samples were stored at –20 °C until analysis. After analysis, the PK parameter was calculated using WinNonlin®.

[1] = rat, in vivo, male SD rats, IV bolus 1 mg/kg, plasma, NCA, n = 4

Structure (SMILES): CC[C@H](C)[C@@H]1NC(=O)CNC(=O)[C@@H]2Cc3c([nH]c4cc(O)ccc34)[S@+]([O-])C[C@H](NC(=O)CNC1=O)C(=O)N[C@@H](CC(N)=O)C(=O)N1C[C@H](O)C[C@H]1C(=O)N[C@@H]([C@@H](C)[C@@H](O)CO)C(=O)N2 [α-amanitin]
- Plasma concentration after PO administration (male SD rats, PO 1 mg/kg, all samples 5-1440 min, n = 4, calibration range 3.05–2220 ng/mL): below the LLOQ
- In vivo clearance as % of hepatic blood flow (rat, IV 1 mg/kg): ~30%
- Bioavailability (in words) (rat, PO 1 mg/kg): very low bioavailability
- AUC(0-t) [1]: 1.17 µg·h/mL
- clearance [1]: 0.84 ± 0.078 L/h/kg
- half-life [1]: 22.3 ± 0.98 min
- Cmax (rat, in vivo, male SD rats, IV bolus 1 mg/kg, plasma, NCA, n = 4, 2 min samples extrapolated above ULOQ): 2.29 ± 0.274 µg/mL
- Vd (rat, in vivo, male SD rats, IV bolus 1 mg/kg, plasma, NCA, n = 4, read-out: Vss): 0.409 ± 0.0183 L/kg
